Results: patent publication US8278473B2, “Alpha, beta-unsaturated imidate compound and pesticidal composition containing the same” (Sumitomo Chemical Company, Limited, priority 2007, dated 2012)

system: Haemaphysalis longicornis; experiment: Test Example 10: Haemaphysalis longicornis, treated filter paper pouch; assay type: in vivo; details: 0.5 mg compound on filter paper 5×10 cm; non-blood sucking nymphal ticks; after 2 days
Description: In 1 mL of acetone, 0.5 mg of any one of the present compounds 1 to 48 was dissolved, and the solution was spread uniformly on one side of a filter paper (TOYO No. 2; 5×10 cm). After dried, the filter paper was folded into two, and the sides were clipped to make a pouch. Into the pouch, tested ticks (Haemaphysalis longicornis, non-blood sucking nymphal ticks, 10 ticks in a group) were placed. The pouch was clipped and sealed. After 2 days, the number of dead ticks was counted.

| SMILES | death rate [%] |
| --- | --- |
| CC(=COc1cccc(C)c1)C(=Nc1ccccc1)Oc1cc(C)cc(C)c1 [Compound 182, 3,5-dimethylphenyl 2-methyl-3-(3-methylphenyloxy)-N-phenyl-2-propenimidate] | 100 |
| COc1ccc(OC(=Nc2ccc(C)cc2)C(C)=COc2ccc(C)cc2)cc1 [Compound 221, 4-methoxyphenyl 2-methyl-N-(4-methylphenyl)-3-(4-methylphenyloxy)-2-propenimidate] | 100 |
| CC(=COc1ccc(C)cc1)C(=Nc1ccccc1)Oc1cccc(F)c1 [Compound 198, 3-fluorophenyl 2-methyl-3-(4-methylphenyloxy)-N-phenyl-2-propenimidate] | 100 |
| CC(=COc1ccc(C(C)C)cc1)C(=Nc1ccccc1)Oc1ccccc1 [Compound 230, phenyl 3-(4-isopropylphenyloxy)-2-methyl-N-phenyl-2-propenimidate] | 100 |
| CC(=COc1ccc(C)c(C)c1)C(=Nc1ccccc1)Oc1ccccc1 [Compound 292, phenyl 3-(3,4-dimethylphenyloxy)-2-methyl-N-phenyl-2-propenimidate] | 100 |
| COc1ccccc1OC=C(C)C(=Nc1ccc(C)c(C)c1)Oc1cccc(C)c1 [Compound 252, 3-methylphenyl N-(3,4-dimethylphenyl)-3-(2-methoxyphenyloxy)-2-methyl-2-propenimidate] | 100 |
| COc1ccc(N=C(Oc2ccccc2)C(C)=COc2ccccc2OC)cc1 [Compound 245, phenyl N-(4-methoxyphenyl)-3-(2-methoxyphenyloxy)-2-methyl-2-propenimidate] | 100 |
| CCOc1cccc(OC(=Nc2ccccc2)C(C)=COc2cccc(C)c2)c1 [Compound 179, 3-ethoxyphenyl 2-methyl-3-(3-methylphenyloxy)-N-phenyl-2-propenimidate] | 100 |
| CC(=COc1ccc(C)cc1)C(=Nc1ccccc1)Oc1ccc2ccccc2c1 [Compound 207, 2-naphthyl 2-methyl-3-(4-methylphenyloxy)-N-phenyl-2-propenimidate] | 100 |
| COc1ccc(N=C(Oc2cccc(OC)c2)C(C)=COc2ccc(OC)cc2)cc1 [Compound 279, 3-methoxyphenyl N-(4-methoxyphenyl)-3-(4-methoxyphenyloxy)-2-methyl-2-propenimidate] | 100 |
| COc1ccccc1OC=C(C)C(=Nc1ccccc1)Oc1cccc(C)c1 [Compound 233, 3-methylphenyl 3-(2-methoxyphenyloxy)-2-methyl-N-phenyl-2-propenimidate] | 100 |
| COc1ccc(N=C(Oc2cccc(C)c2)C(C)=COc2ccc(C)cc2)cc1 [Compound 225, 3-methylphenyl N-(4-methoxyphenyl)-2-methyl-3-(4-methylphenyloxy)-2-propenimidate] | 100 |
| COc1ccccc1OC=C(C)C(=Nc1ccc(C)cc1)Oc1cc(C)cc(C)c1 [Compound 244, 3,5-dimethylphenyl 3-(2-methoxyphenyloxy)-2-methyl-N-(4-methylphenyl)-2-propenimidate] | 100 |
| CCc1cccc(OC(=Nc2ccc(C)c(C)c2)C(C)=COc2ccc(OC)cc2)c1 [Compound 284, 3-ethylphenyl N-(3,4-dimethylphenyl)-3-(4-methoxyphenyloxy)-2-methyl-2-propenimidate] | 100 |
| CCc1cccc(OC(=Nc2ccc(OC)cc2)C(C)=COc2ccccc2OC)c1 [Compound 247, 3-ethylphenyl N-(4-methoxyphenyl)-3-(2-methoxyphenyloxy)-2-methyl-2-propenimidate] | 100 |
| CCc1cccc(OC(=Nc2ccc(C)cc2)C(C)=COc2ccccc2OC)c1 [Compound 241, 3-ethylphenyl 3-(2-methoxyphenyloxy)-2-methyl-N-(4-methylphenyl)-2-propenimidate] | 100 |
| COc1ccc(OC(=Nc2ccccc2)C(C)=COc2ccc(C)cc2)cc1 [Compound 205, 4-methoxyphenyl 2-methyl-3-(4-methylphenyloxy)-N-phenyl-2-propenimidate] | 100 |
| CC(=COc1cccc(C)c1)C(=Nc1ccccc1)Oc1cccc(C)c1 [Compound 176, 3-methylphenyl 2-methyl-3-(3-methylphenyloxy)-N-phenyl-2-propenimidate] | 100 |
| CC(=COc1ccc(C)cc1)C(=Nc1ccc(C)cc1)Oc1cccc(F)c1 [Compound 214, 3-fluorophenyl 2-methyl-N-(4-methylphenyl)-3-(4-methylphenyloxy)-2-propenimidate] | 100 |
| CCc1ccc(OC=C(C)C(=Nc2ccccc2)Oc2ccccc2)cc1 [Compound 229, phenyl 3-(4-ethylphenyloxy)-2-methyl-N-phenyl-2-propenimidate] | 100 |
| CC(=COc1ccc(C)cc1)C(=Nc1ccccc1)Oc1ccc(F)cc1 [Compound 199, 4-fluorophenyl 2-methyl-3-(4-methylphenyloxy)-N-phenyl-2-propenimidate] | 100 |

| SMILES | death rate [%] |
| --- | --- |
| CCOc1cccc(OC(=Nc2ccc(C)cc2)C(C)=COc2cccc(C)c2)c1 [Compound 186, 3-ethoxyphenyl 2-methyl-N-(4-methylphenyl)-3-(3-methylphenyloxy)-2-propenimidate] | 100 |
| COc1cccc(OC=C(C)C(=Nc2ccccc2)Oc2ccccc2)c1 [Compound 257, phenyl 3-(3-methoxyphenyloxy)-2-methyl-N-phenyl-2-propenimidate] | 100 |
| COc1ccc(OC=C(C)C(=Nc2ccccc2)Oc2ccccc2)cc1 [Compound 262, phenyl 3-(4-methoxyphenyloxy)-2-methyl-N-phenyl-2-propenimidate] | 100 |
| COc1ccccc1OC=C(C)C(=Nc1ccc(C)cc1)Oc1ccccc1 [Compound 239, phenyl 3-(2-methoxyphenyloxy)-2-methyl-N-(4-methylphenyl)-2-propenimidate] | 100 |
| COc1ccc(OC=C(C)C(=Nc2ccccc2)Oc2cccc(OC)c2)cc1 [Compound 266, 3-methoxyphenyl 3-(4-methoxyphenyloxy)-2-methyl-N-phenyl-2-propenimidate] | 100 |
| CC(=COc1ccc(C)cc1)C(=Nc1ccccc1)Oc1cccc(C)c1 [Compound 195, 3-methylphenyl 2-methyl-3-(4-methylphenyloxy)-N-phenyl-2-propenimidate] | 100 |
| COc1ccc(N=C(Oc2cccc(C)c2)C(C)=COc2ccccc2OC)cc1 [Compound 246, 3-methylphenyl N-(4-methoxyphenyl)-3-(2-methoxyphenyloxy)-2-methyl-2-propenimidate] | 100 |
| CCc1cccc(OC(=Nc2ccccc2)C(C)=COc2ccccc2OC)c1 [Compound 234, 3-ethylphenyl 3-(2-methoxyphenyloxy)-2-methyl-N-phenyl-2-propenimidate] | 100 |
| COc1ccc(N=C(Oc2cccc(C)c2)C(C)=COc2cccc(C)c2)cc1 [Compound 189, 3-methylphenyl N-(4-methoxyphenyl)-2-methyl-3-(3-methylphenyloxy)-2-propenimidate] | 100 |
| COc1cccc(OC=C(C)C(=Nc2ccc(C)cc2)Oc2cccc(C)c2)c1 [Compound 261, 3-methylphenyl 3-(3-methoxyphenyloxy)-2-methyl-N-(4-methylphenyl)-2-propenimidate] | 100 |
| COc1ccc(OC=C(C)C(=Nc2ccc(C)cc2)Oc2ccc(C)cc2)cc1 [Compound 271, 4-methylphenyl 3-(4-methoxyphenyloxy)-2-methyl-N-(4-methylphenyl)-2-propenimidate] | 100 |
| CCc1cccc(OC(=Nc2ccc(C)cc2)C(C)=COc2cccc(C)c2)c1 [Compound 185, 3-ethylphenyl 2-methyl-N-(4-methylphenyl)-3-(3-methylphenyloxy)-2-propenimidate] | 100 |
| COc1ccc(N=C(Oc2ccccc2)C(C)=COc2cccc(C)c2)cc1 [Compound 188, phenyl N-(4-methoxyphenyl)-2-methyl-3-(3-methylphenyloxy)-2-propenimidate] | 100 |
| CC(=COc1cccc(C)c1)C(=Nc1ccc(C)cc1)Oc1cccc(C)c1 [Compound 184, 3-methylphenyl 2-methyl-N-(4-methylphenyl)-3-(3-methylphenyloxy)-2-propenimidate] | 100 |
| CC(=COc1cccc(C)c1)C(=Nc1ccccc1)Oc1ccccc1 [Compound 175, phenyl 2-methyl-3-(3-methylphenyloxy)-N-phenyl-2-propenimidate] | 100 |
| CCCC(=COc1ccccc1)C(=Nc1ccccc1)Oc1ccccc1 [Compound 322, phenyl 3-phenoxy-N-phenyl-2-n-propyl-2-propenimidate] | 100 |
| CC(=COc1ccc(C)cc1)C(=Nc1ccc(C)cc1)Oc1ccc(F)cc1 [Compound 215, 4-fluorophenyl 2-methyl-N-(4-methylphenyl)-3-(4-methylphenyloxy)-2-propenimidate] | 100 |
| CCOc1cccc(OC(=Nc2ccccc2)C(C)=COc2ccccc2OC)c1 [Compound 237, 3-ethoxyphenyl 3-(2-methoxyphenyloxy)-2-methyl-N-phenyl-2-propenimidate] | 100 |
| COc1ccc(OC=C(C)C(=Nc2ccc(C)cc2)Oc2cc(C)cc(C)c2)cc1 [Compound 275, 3,5-dimethylphenyl 3-(4-methoxyphenyloxy)-2-methyl-N-(4-methylphenyl)-2-propenimidate] | 100 |
| COc1cccc(OC(=Nc2ccc(C)cc2)C(C)=COc2ccc(C)cc2)c1 [Compound 220, 3-methoxyphenyl 2-methyl-N-(4-methylphenyl)-3-(4-methylphenyloxy)-2-propenimidate] | 100 |
| COc1cccc(OC(=Nc2ccc(C)cc2)C(C)=COc2ccccc2OC)c1 [Compound 242, 3-methoxyphenyl 3-(2-methoxyphenyloxy)-2-methyl-N-(4-methylphenyl)-2-propenimidate] | 100 |
